According to ChEMBL document CHEMBL3507680, “University of Dundee, Gates Library screen for HepG2 cell viability”:

Assay: Human HepG2 cell viability assay in 384 well format
Type: toxicity, cell-based
Parameters: dose 125 nL, time 70.5 hour; concentration not given beside the values
Details: HepG2 cells, read-out: Inhibition

SMILES	cytotoxicity at 70.5 h [%]
O=C(O)c1cccc(CN2CCCC(Cc3ccn[nH]3)C2)c1 (stereo unspecified)	-10.2
Nc1nc(N2CCCC(COc3ccc(F)cc3)C2)c2nc[nH]c2n1 (stereo unspecified)	-7.35
COc1cccc(C(C(=O)O)N(C)Cc2ccc(C)o2)c1 (stereo unspecified)	-0.112
C=C(C)COc1ccccc1C(=O)N1CCC2(CC1)CN(C)CCN2C	-11.5
Cc1ccc(CC(=O)N2Cc3nccn3CC(Cn3cccn3)C2)cc1 (stereo unspecified)	-0.504
CS(=O)(=O)N1CCCCCC1c1cc(-c2ccc(F)cc2)no1 (stereo unspecified)	5.67
CC(NC(=O)N1CCC[C@H]1CO)c1noc(-c2ccccc2)n1 (stereo partly specified)	-3.8
COCC(=O)N1C[C@@H](c2cccc(OC)c2)[C@@]2(CCCCC(=O)N2)C1	-10.3
O=C(NCc1cn2c(n1)CN(Cc1nccs1)CC2)C1CCC1	-6.31
Cc1cc(N(C)C)nc(NC2CCc3nc(C)nn3C2)n1 (stereo unspecified)	6.17
O=C(NCC1CC1)C1CN(C(=O)c2ccnnc2)CC12CCOCC2 (stereo unspecified)	-2.63
COCCN1CCc2ncc(CNc3cc(N(C)C)ncn3)n2CC1	-8.47
Cn1cnc2c1C(COCC1CC1)CN(C(=O)c1cccs1)C2 (stereo unspecified)	8.88
O=C(c1cccc2c1OCCO2)N1CCCC1Cn1cccn1 (stereo unspecified)	-8.07
CCOCC(=O)N1CCC(C)(c2nccs2)CC1	13.6
CC(O)CNCc1ccc(OCc2ccc3c(c2)OCCO3)cc1 (stereo unspecified)	19.4
COc1ccccc1CN1CCCC2(Cc3ccccc3CNC2=O)C1 (stereo unspecified)	-1.54
COc1cccc(-c2noc(-c3ccc(NCC(C)C)nc3)n2)c1OC	-2.74
O=C(COCC(=O)N1CCCCCC1)NCc1cccc(Br)c1	0.154

SMILES	cytotoxicity at 70.5 h [%]
CCN(CC1CN(Cc2cccnc2)CCO1)c1cccnn1 (stereo unspecified)	-0.418
Cc1nc(C)n(CC2CCCN2Cc2ncc(C(C)(C)C)o2)n1 (stereo unspecified)	-4.1
COC(=O)c1cc(CN2CCN(c3nc(C)cnc3C)CC2)ccc1O	-1.95
COCCNc1nc(-c2ccc(S(=O)(=O)N3CCCCC3)cc2)cs1	0.097
Cc1cnc(N2C[C@@H]3[C@@H](C2)OCC(=O)N3C)nc1	-8.76
CCCc1ccc(CN2CCN(c3ncccn3)[C@@H]3CS(=O)(=O)C[C@@H]32)o1	-8.8
Cc1nccn1CCCN1CCCC(c2ccccc2)C1 (stereo unspecified)	-1.68
CCC(C)Oc1cc(C(=O)Nc2nccs2)ccn1 (stereo unspecified)	0.776
Oc1cc(C2CCCCN2Cc2ccsc2)nc(-c2ccncc2)n1 (stereo unspecified)	-9.16
CCC1c2ccsc2CCN1C(=O)NCc1ccnc(N(C)C)c1 (stereo unspecified)	-9.44
Cc1nn(CCNc2ncnc3c2NC(=O)CN3)c(C)c1Cl	-8.12
O=C(O)[C@@H]1CN(CC(=O)N2CCCCCC2)C[C@H]1c1ccc(F)cc1	-5.12
O=C(c1ccc[nH]1)N1CCO[C@]2(CCC[C@@H]2COc2cccnc2)C1	-2.32
CCn1ccnc1CN1CCN(c2nccc(OC)n2)CC1C (stereo unspecified)	18.6
Nc1nc(N)c2c(n1)OC1(CCN(C(=O)CC3CCCNC3)CC1)C2 (stereo unspecified)	1.11
CCc1cc(N2C[C@H](C3CC3)[C@@H](N)C2)nc(N2CCCC2)n1	18.8
Cc1noc(CNC(=O)NCC2(C)CCCc3ccccc32)n1 (stereo unspecified)	-8.6
CCN(CC1CCCN(CCc2cccc(OC)c2)C1)C(=O)CCSC (stereo unspecified)	-6.12
COc1ccccc1NC(=O)CSC1CCc2ccccc2NC1=O (stereo unspecified)	-10.1

SMILES	cytotoxicity at 70.5 h [%]
CC(Cn1cccn1)NC(=O)C1=Cc2ccccc2OC1 (stereo unspecified)	-4.64
c1ccc(CN2CCOC3(COCCN(c4ncccn4)C3)C2)nc1 (stereo unspecified)	-12.3
CC(=O)NCC(=O)N1Cc2cc(-c3cc[nH]n3)ccc2C1c1cnco1 (stereo unspecified)	-2.28
CCC1C=CCN1C(=O)c1cc(COc2ccccc2OC)[nH]n1 (stereo unspecified)	-11.7
CCn1c(Cn2cncn2)nnc1C1CCN(Cc2ccncc2)CC1	-6.34
Cc1cc(-c2cccc3c2CCNC3)cnc1-n1cnnc1	-5.08
Cc1ncc2c(n1)CN(C(C(N)=O)c1ccc(F)cc1)CC2 (stereo unspecified)	-2.82
COc1ccc2c(c1)OCC(C(=O)NCc1ncc3c(n1)CCC3)C2 (stereo unspecified)	-8.14
CC(=O)N1CCC1c1cc(N2CCNC(=O)C2)nc(C)n1 (stereo unspecified)	-5.23
Cc1nn(CN(CC2CCOC2)C2CC2)c(=O)c2ccccc12 (stereo unspecified)	-3.01
COc1ccccc1-c1nnc([C@H]2CCN(C(=O)C3CC3)C2)o1	11.5
CC(=O)N1CCc2c(nc(N(C)C)nc2NC(C)Cc2cccs2)C1 (stereo unspecified)	-6.58
CCN1CCN(Cc2nc(C)no2)CC1	12.7
CN(Cc1ccsc1)c1nc(-c2ccccn2)nc2c1CCNCC2	-9.47
O=C(NCc1ccncc1)c1nc2c(o1)CN(C(=O)c1cccnc1)C2	-0.144
CCC(CC)NC(=O)c1cccnc1N1CCCC1c1ccccn1 (stereo unspecified)	16.4
CN1CCN(C[C@@H]2CN(C3Cc4ccccc4C3)C[C@@H]2CO)CC1	22.1
O=C(NC1CC2(CCN(CCO)CC2)c2ccccc21)c1ccncc1 (stereo unspecified)	-5.59
